Reference: patent US20250325500A1, “USE OF 5-METHOXY-2-AMINOINDAN ("MEAI") IN METHODS FOR TREATING COCAINE ADDICTION” (Clearmind Medicine Inc., priority 2022, published 2025)

Tests used:
Type in all cases: in vivo, rat
[1] = system: rats; assay: Conditioned Place Preference (CPP) model, reward-like effect of MEAI; details: 5 conditioning days, test on 6th day, difference from baseline
Description: (§1) Two groups were tested: One group received MEAI (four different doses), while the second group received cocaine in each conditioning day. Additionally, some rats that received cocaine were treated with MEAI on the test day to determine if MEAI has a treatment-like effect.
(§2) In the CPP assay, the rats learned to associate a reward with an environmental cue. Two groups of rats were put through a three-day baseline period during which each rat was allowed to freely move during 20 minutes from a striped to a smooth compartment in a closed arena. Time measurements were taken to determine which compartment the rat spent more time in (i.e., preferred). Baseline data was determined as an average duration of time spent in each compartment. After the baseline period, a training period of 5 days was conducted in which rats were injected with saline (I.P.) in the morning and placed in the preferred compartment for 20 minutes. Four hours after the saline injection, cocaine (15 mg/kg I.P.) or MEAI (4 doses; 20, 10, 5 and 2.5 mg/kg I.P.) was injected and the rat was placed in the less preferred compartment for 20 minutes. On the 6th day, a CPP test was conducted (identical to the baseline period) to determine if MEAI imparts a reward-like effect similar to cocaine. The duration time spent in each compartment was calculated as the difference between the baseline time and the testing time (seconds) as previously described.
In the first part of this study, we examined whether administration of MEAI in four different doses […] reward.

[2] = system: cocaine preference in rats; assay: CPP test, MEAI as a treatment for cocaine preference in rats; details: rats conditioned with cocaine 15 mg/kg
Description: as §1
as §2, with “Four hours after the saline injection, cocaine (15 mg/kg I.P.) or MEAI (4 doses; 20, 10, 5 and 2.5 mg/kg I.P.) was injected and the rat was placed in the less preferred compartment for 20 minutes. On the 6th day, a CPP test was conducted (identical to the baseline period) to determine if MEAI imparts a reward-like effect similar to cocaine.” left out, “described. […]” for “described.”
The two groups were divided as values below 100 seconds in a non-preferred compartment (MEAI A) and above 100 seconds (MEAI B). […] The behavioral data were analyzed with Ordinary one-way ANOVA. Data was expressed as mean±SEM and a probability value of […] was considered significant. n=5-12 rats per group. […]

[3] = system: rats; assay: Side effects observed in rats dosed with MEAI during CPP conditioning; details: anxiety, diarrhea, secretion of vaginal plug
Description: as §2
We started testing with 20 mg/kg of MEAI. […] Due to these side effects, we decided to test lower doses of MEAI as opposed to higher doses. Accordingly, the following dose tested was 10 mg/kg of MEAI. 51% of the rats receiving this dose had side effects, including anxiety, aggressiveness, piloerection, tremors low body posture, diarrhea, and secretion of “vaginal plug,” with a trend towards improved symptoms, although not statistically significant, compared to the 20 mg/kg dose. […] Overall, the mean that was most negative was for the dose 5 mg/kg, and therefore we decided to test the efficacy of this dose as a treatment for cocaine preference in rats.

Structure (SMILES): COc1ccc2c(c1)CC(N)C2 (stereo not shown) [MEAI, 5-methoxy-2-aminoindan]
- duration of time spent in a non-preferred place (reward) ([1]; MEAI 2.5 mg/kg I.P.): negative
- duration of time spent in a non-preferred place (reward) ([1]; MEAI 5 mg/kg I.P.): negative
- duration of time spent in a non-preferred place (reward) ([1]; MEAI 10 mg/kg I.P.): rewarding effect
- duration of time spent in a non-preferred place (reward) ([1]; MEAI 20 mg/kg I.P.): low reward
- decrease of reward in cocaine-conditioned rats, 5 mg/kg versus 10 mg/kg ([2]; MEAI 5 mg/kg i.p. compared with 10 mg/kg i.p. on test day (FIG. 2)): better results in decreasing reward
- compartment preference of cocaine-conditioned rats after treatment ([2]; MEAI 5 mg/kg i.p. on test day, 10 min before test): mixed
- rats presenting side effects ([3]; MEAI 2.5 mg/kg I.P.): 21.4%
- rats presenting side effects ([3]; MEAI 5 mg/kg I.P.): 20.2%
- rats presenting side effects ([3]; MEAI 10 mg/kg I.P., aggressiveness, piloerection, tremors, low body posture): 51%
- rats presenting side effects ([3]; MEAI 20 mg/kg I.P., aggressiveness, piloerection, tremors, low body posture): 65.7%
